Measurements as given in US7994113B2, “βGBP, compositions comprising βGBP, and related methods and uses thereof” (priority 2007, dated 2011).
Where two headings read alike, the source gives them in different places.

Columns and labels:
activated T cells = conditions: Rabinovich et al., 1997, 1998, 1999; cited from earlier work
[1] = system: MCF10A mammary ductal cells; experiment: Growth rate and Annexin V apoptosis of naïve MCF10A cells; type: cell-based
[2] = system: MCF-7 breast cancer cells; experiment: Growth rate of naïve MCF-7 cells; type: cell-based
akt mRNA = experiment: Northern blot analysis of akt mRNA; type: cell-based; conditions: for akt mRNA level: 30 nM Hu-r-βGBP
ERK = type: cell-based
[3] = system: ST4 (Human malignant T cell leukaemia) cells; experiment: ST4 tumour growth in SCID mice, subcutaneous βGBP; type: in vivo; conditions: SCID mice injected s.c. with 5×10^6 ST4 cells; Hu-r-βGBP s.c. day 1 to day 16
Description: 5×10^6 ST4 (Human malignant T cell leukaemia) cells were injected subcutaneously at day 0. Hu-r-βGBP was administered from day 1 to day 16 by subcutaneous injection.
Female SCID mice were housed under standard conditions. Mice were divided into four groups of four. At age 6 weeks 5×10^6 ST4 (Human malignant T cell leukaemia) cells were injected subcutaneously (day 0).
Hu-r-βGBP was obtained as described in Example 1.
βGBP was administered from day 1 to day 16 by individual daily subcutaneous injection. Each group of mice received a different dosage of βGBP. 0 ng/mouse (control), 20 ng/mouse, 200 ng/mouse or 400 ng/mouse
Tumour size was assessed at day 42 or day 90 by calliper measurement.

[4] = system: BT474 breast cancer cells; experiment: Growth rate and apoptosis of BT474 cells treated with Hu-r-βGBP; type: cell-based; conditions: Hu-r-βGBP 15 or 30 nM added at hour 3 after seeding
Description: (§1) Cell culture: BT474 cells were cultured in DMEM/F12 medium with 10% fetal calf serum (FCS) (Invitrogen, UK) and 20 μg/ml insulin (Sigma, UK); the SKBR3 cells were grown in DMEM medium (Invitrogen UK) plus 10% FCS. Cultures were incubated at 37° C. in a humidified atmosphere of 5% CO2 in air.
(§2) 1×10^5 cells were seeded per 25 cm^2 flask, or 3×10^5 per 75 cm^2 flask. Sufficient numbers of flasks were seeded in parallel to allow for individual flasks to be consumed in the process of monitoring cell numbers (i.e. growth rates), apoptosis, PI3K activity, akt mRNA levels, Akt protein levels and phosphorylated Akt (P-Akt) protein levels as discussed below. Unless otherwise indicated results correspond to one flask of cells.
(§3) Growth rates: Cells were removed from the flasks by trypsinisation and counted in a haemocytometer to assess cell numbers at time points of 1, 2, 3, 4, and 5 days for BT474 cells, SKBR3 cells, MCF10A^V12Ras cells and MCF10A^CTx cells. MCF10A cells were monitored at 1, 2, 3, and 4 days. Cell numbers were determined in triplicate. […]
(§4) Cytofluorimetry: Apoptosis was monitored using four criteria as outlined below. […]
(§5) Redistribution of plasma membrane phosphatidylserine was assessed using Annexin V-FITC (Pharmingen, San Diego, Calif.). […]
(§6) Caspase 3 activity was measured by cleavage of non fluorescent PhiPhiLux to a fluorescent product (OncoImmunin, Mass.). […]

[5] = system: SKBR3 breast cancer cells; experiment: Growth rate and apoptosis of SKBR3 cells treated with Hu-r-βGBP; type: cell-based; conditions: Hu-r-βGBP 15 or 30 nM added at hour 3 after seeding
Description: as §1, §2, §3, §4, §5, §6

MCF10A^V12Ras cells = experiment: Growth rate and Annexin V apoptosis of MCF10A^V12Ras cells; type: cell-based; conditions: Hu-r-βGBP 15 or 30 nM added at hour 3
MCF10A^CTx cells = type: cell-based
MCF-7^CTx cells = type: cell-based
SW480 colon cancer cells = experiment: Growth rate of SW480 colon cancer cells with Hu-r-βGBP; type: cell-based
Description: (§7) To confirm these observations three colon cancer cell lines were investigated, SW480, SW620 and LoVo. Cells were grown in culture and incubated with βGBP at varying concentrations. […] Concentrations as low as 1-2 nM have been observed as effective in inducing apoptosis (FIG. 6). It is possible that in some circumstances even lower concentrations of βGBP may be effective.
(§8) Cell culture: SW480, SW620 and LoVo colon cancer cells were grown in Leibowitz L-15 medium with 10% fetal bovine serum in sealed flasks at 37° C. Hu-r-βGBP was added 3 hrs after seeding cells at a concentration of 1 nM or 2 nM. Control cells were grown without βGBP.
(§9) Growth rates: Cell numbers were measured over a time course of 5 days. Cell numbers were assessed at 0, 1, 2, 3, 4, and 5 days for each cell type incubated in the presence of Hu-r-βGBP. Cell numbers were assessed in triplicate by counting in a haemocytometer as discussed above in Example 1 and compared with cell numbers for control cells grown without βGBP.

SW620 colon cancer cells = experiment: Growth rate of SW620 colon cancer cells with Hu-r-βGBP; type: cell-based
Description: as §7, §8, §9

LoVo colon cancer cells = experiment: Growth rate of LoVo colon cancer cells with Hu-r-βGBP; type: cell-based
Description: as §7, §8, §9

class IA PI3K = experiment: PI3 kinase assay: immunoprecipitated enzyme from treated cells, PIP3 by competitive ELISA; type: cell-based; conditions: for PI3K activity: 30 nM Hu-r-βGBP
Akt = experiment: Western blot of phosphorylated (Ser473) Akt and total Akt protein; type: cell-based; conditions: 30 nM Hu-r-βGBP
Description: Western blot analysis: Cells were lysed in 50 mM Tris pH7.4. 150 mM NaCl, 1% TritonX-100, 1 mMPMSF, 2.5 μg/ml leupeptin, 1% aprotinin, 10 mM sodium fluoride, 1 mM sodium vanadate (Sigma, UK). 50 μg of protein were loaded onto 12% polyacrylamide gels. Phosphorylated Akt was detected using 1:1000 anti-phospho-Akt (Ser473) antibody (Cell Signalling Technology, Boston, Mass.) and total Akt1/2 protein was probed with 1:1000 anti-Akt1/2 (H136) (Santa Cruz, Santa Cruz, Calif.). Secondary antibodies conjugated to horseradish peroxidase (HRP) (GE Healthcare, UK) were used at 1:1000 dilution and visualised by enhanced chemiluminescence (GE Healthcare, UK). Actin (Sigma, UK) was used as a loading control.

[6] = system: breast cancer, ovarian cancer, oral cancer, prostate cancer and leukaemia cells; experiment: Screen of pro-apoptotic responses to βGBP in a range of cancer types; type: cell-based
Description: As described above βGBP is known to inhibit growth and/or promote apoptosis in cells from a range of cancer types.
In breast cancer, ovarian cancer, oral cancer, prostate cancer and leukaemia cells tested for pro-apoptotic responses to βGBP, the effective dose in cell culture was 15-30 nM.

[7] = MCF10A, MCF10A^V12Ras and MCF10A^CTx cells

GAL-1: homodimers formed from βGBP, a complex with lectin-like characteristics
threshold concentration for apoptotic activity (activated T cells): 4 µg/mL

cholera toxin [reference compound]
cell proliferation [1]: boosted | cell proliferation [2]: accelerated cell proliferation | akt gene expression (akt mRNA): accentuated akt gene expression | akt mRNA levels (akt mRNA): more markedly expressed | active ERK levels (ERK): raised active ERK levels

βGBP: Human recombinant β-galactoside binding protein expressed in E. coli; negative cell cycle regulator, anti-proliferative cytokine
appearance of tumours [3]: totally prevent the appearance of tumours | effect on cell replication and cell death [4]: virtually no effect on cell replication until, after 2-3 generation cycles, abrupt cell death was triggered | effect on cell replication and cell death [5]: virtually no effect on cell replication until, after 2-3 generation cycles, abrupt cell death was triggered | response of cell proliferation to βGBP ([1]; naïve MCF10A cells, Hu-r-βGBP 15 or 30 nM added at hour 3): minor effect | apoptosis after inhibition of PI3K activity and loss of akt gene function ([1]; naïve normal-like MCF10A cells, 30 nM Hu-r-βGBP, Annexin V at day three): did not lead to apoptosis | response of cell proliferation to βGBP (MCF10A^V12Ras cells): abrupt cell death after 2-3 cell replication cycles | response of cell proliferation to βGBP (MCF10A^CTx cells): abrupt cell death after 2-3 cell replication cycles | effect on cell growth ([2]; naïve MCF-7 cells, 20 nM Hu-r-βGBP added at hour 3): growth inhibitory effect | cell death in response to βGBP (MCF-7^CTx cells): succumbed to total death ahead of the naive counterparts | concentration effective in inducing apoptosis (SW480 colon cancer cells; SW480 cells, Hu-r-βGBP added 3 hrs after seeding, 5 days): 1 to 2 nM | effective concentration relative to other cancer cell lines (times lower) (SW480 colon cancer cells; SW480 colon cancer cells versus other cancer cell lines): 15 to 30 times | concentration effective in inducing apoptosis (SW620 colon cancer cells; SW620 cells, Hu-r-βGBP added 3 hrs after seeding, 5 days): 1 to 2 nM | effective concentration relative to other cancer cell lines (times lower) (SW620 colon cancer cells; SW620 colon cancer cells versus other cancer cell lines): 15 to 30 times | concentration effective in inducing apoptosis (LoVo colon cancer cells; LoVo cells, Hu-r-βGBP added 3 hrs after seeding, 5 days): 1 to 2 nM | effective concentration relative to other cancer cell lines (times lower) (LoVo colon cancer cells; LoVo colon cancer cells versus other cancer cell lines): 15 to 30 times | PI3K activity (class IA PI3K; BT474 and SKBR3 cells, already present at hour six, maintained throughout observation): downregulation of PI3K activity | PI3K activity (class IA PI3K; MCF10A, MCF10A^V12Ras and MCF10A^CTx cells, delay from 6 to 24 hours with V12 Ras): brought down and maintained PI3K activity below basal levels | decrease of PI3K activity below basal levels at which akt gene expression was negated (class IA PI3K; MCF-7^CTx cells, 20 nM Hu-r-βGBP, 10 nM wortmannin or 20 nM LY294002 added at hour 3 from seeding): ~35% | akt mRNA level (akt mRNA; BT474 and SKBR3 cells, within one day from addition): virtually undetectable | akt mRNA level (akt mRNA; [7]): virtual absence of akt mRNA | akt gene expression (akt mRNA; MCF-7^CTx cells, 20 nM Hu-r-βGBP): negated | phosphorylated Akt and Akt protein (Akt; BT474 and SKBR3 cells, preceded the apoptotic process): loss of phosphorylated Akt, and loss of Akt protein | Akt function (phosphorylated Akt and total Akt protein) (Akt; [7]): loss of Akt function | effective dose in cell culture for pro-apoptotic responses [6]: 15 to 30 nM | ERK phosphorylation (ERK): no changes in ERK phosphorylation
